For assay [1], the target named is T1, wt human TYK2, catalytic site (Homo sapiens, UniProt P29597).
T1 construct: wt human TYK2, catalytic site; purchased SignalChem
T1 sequence (P29597 897-1176 limits assumed): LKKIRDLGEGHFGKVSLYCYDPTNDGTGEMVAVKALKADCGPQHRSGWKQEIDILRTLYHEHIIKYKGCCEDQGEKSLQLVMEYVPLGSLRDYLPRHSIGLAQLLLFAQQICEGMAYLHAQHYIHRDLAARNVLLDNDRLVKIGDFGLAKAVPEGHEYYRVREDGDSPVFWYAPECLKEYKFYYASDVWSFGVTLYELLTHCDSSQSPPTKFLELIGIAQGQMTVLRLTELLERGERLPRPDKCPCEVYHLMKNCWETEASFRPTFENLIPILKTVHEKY
As to the kind of experiment: HTRF KinEASE assay, TYK2. In kind it is biochemical. Conditions: 1 μM ATP; read-out: IC50, Activity Toward TYK2. Summed up:
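HTRF KinEASE-TK readout with 1 μM biotinylated TK substrate in 1× kinase buffer, ≥30 min at room temperature, then antibody/streptavidin-XL665 detection for 60 min. TYK2 at 2 nM with 1 μM ATP; JAK2 at 1 nM with 100 μM ATP. Analysis uses emission ratios.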

Assay [2] concerns the target T2, wt human LRRK2, catalytic site (Homo sapiens, UniProt Q5S007).
T2 construct: 5 nM wt human LRRK2, catalytic site; purchased ThermoFisher
The assay can be described thus: TR-FRET LanthaScreen Eu Kinase Binding Assay, LRRK2 wt. The note with it: one range stated for wt and G2019, read-out: IC50, Activity Toward LRRK2(Wt). As for the experimental part: (§1) The basic protocol for TR-FRET LanthaScreen Eu Kinase Binding Assay inhibitor studies were performed as follows. LanthaScreen Kinase Binding Assays (ThermoFisher/USA) to evaluate inhibitors were performed by addition of 5 μL of test compound in corresponding DMSO dilutions/5 μl of kinase/antibody mixture, 5 μL of tracer into 384 well small volume plates. After incubation for 1 hour at room temperature, plates were read. Data analysis of emission ratios was according LanthaScreen Eu Kinase Binding Assay protocol.
(§2) Kinase and assay components were adjusted to final concentrations according to kit protocol. For LRRK2: 5 nM wt human LRRK2, catalytic site, or G2019S human LRRK2, catalytic site (ThermoFisher/USA), 2 nM Eu-Anti-GST Antibody, 10 nM Kinase Tracer 236 in 1× Kinase Buffer A. For NUAK1: 8 nM wt human NUAK1, full length (ThermoFisher/USA), 2 nM Eu-Anti-His Antibody, 5 nM Kinase Tracer 236 in 1× Kinase Buffer A.

For assay [3], the target named is T3, G2019S human LRRK2, catalytic site (Homo sapiens, UniProt Q5S007, G2019S).
T3 construct: G2019S human LRRK2, catalytic site; purchased ThermoFisher
T3 sequence (Q5S007 970-2527 G2019S limits assumed): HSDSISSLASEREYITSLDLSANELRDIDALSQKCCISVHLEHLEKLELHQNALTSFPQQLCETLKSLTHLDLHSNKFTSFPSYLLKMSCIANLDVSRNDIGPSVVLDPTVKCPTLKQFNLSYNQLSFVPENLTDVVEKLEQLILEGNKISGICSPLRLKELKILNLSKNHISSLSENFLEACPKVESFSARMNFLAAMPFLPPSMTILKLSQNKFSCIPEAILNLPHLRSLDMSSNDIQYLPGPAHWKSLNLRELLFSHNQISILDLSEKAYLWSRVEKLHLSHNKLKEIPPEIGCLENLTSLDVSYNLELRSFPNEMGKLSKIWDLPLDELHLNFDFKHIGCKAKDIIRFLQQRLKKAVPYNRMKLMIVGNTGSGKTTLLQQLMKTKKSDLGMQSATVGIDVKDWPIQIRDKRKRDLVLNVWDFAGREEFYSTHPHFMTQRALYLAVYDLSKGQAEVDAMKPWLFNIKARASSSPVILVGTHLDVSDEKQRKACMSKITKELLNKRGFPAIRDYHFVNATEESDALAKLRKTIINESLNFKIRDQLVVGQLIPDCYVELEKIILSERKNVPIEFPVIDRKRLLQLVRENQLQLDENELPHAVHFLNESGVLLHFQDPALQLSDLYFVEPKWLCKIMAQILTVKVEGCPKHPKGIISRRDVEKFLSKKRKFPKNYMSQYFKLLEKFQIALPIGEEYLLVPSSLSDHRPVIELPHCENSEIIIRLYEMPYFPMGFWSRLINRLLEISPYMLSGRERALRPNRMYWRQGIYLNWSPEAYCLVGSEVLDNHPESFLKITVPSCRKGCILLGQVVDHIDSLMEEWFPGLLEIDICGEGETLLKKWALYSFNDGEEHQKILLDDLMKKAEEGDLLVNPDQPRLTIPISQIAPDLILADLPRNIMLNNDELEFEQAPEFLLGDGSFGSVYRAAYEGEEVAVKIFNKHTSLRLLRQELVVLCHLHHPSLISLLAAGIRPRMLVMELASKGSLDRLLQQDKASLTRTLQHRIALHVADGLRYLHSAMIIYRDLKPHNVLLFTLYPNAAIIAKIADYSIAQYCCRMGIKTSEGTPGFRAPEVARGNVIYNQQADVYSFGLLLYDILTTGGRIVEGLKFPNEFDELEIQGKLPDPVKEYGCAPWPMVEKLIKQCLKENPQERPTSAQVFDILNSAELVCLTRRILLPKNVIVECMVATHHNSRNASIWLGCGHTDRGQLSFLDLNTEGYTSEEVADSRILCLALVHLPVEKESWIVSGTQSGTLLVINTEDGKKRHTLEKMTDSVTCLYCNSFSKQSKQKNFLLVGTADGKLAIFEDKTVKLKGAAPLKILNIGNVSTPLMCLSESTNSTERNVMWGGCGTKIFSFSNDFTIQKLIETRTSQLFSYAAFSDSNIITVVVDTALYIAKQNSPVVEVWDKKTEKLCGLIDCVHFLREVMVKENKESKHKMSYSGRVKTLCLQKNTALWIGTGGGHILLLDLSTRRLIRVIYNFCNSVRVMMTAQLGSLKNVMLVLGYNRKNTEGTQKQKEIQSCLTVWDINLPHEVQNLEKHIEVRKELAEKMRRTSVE
The assay can be described thus: TR-FRET LanthaScreen Eu Kinase Binding Assay, LRRK2 G2019S. Conditions: LRRK2(G2019); one range stated for wt and G2019; read-out: IC50, Activity Toward LRRK2(G2019). The protocol: as §1, §2

For assay [4], the target named is T4, wt human JAK1, catalytic site (Homo sapiens, UniProt P23458).
T4 construct: wt human JAK1, catalytic site; purchased ThermoFisher
T4 sequence (P23458 875-1153 limits assumed): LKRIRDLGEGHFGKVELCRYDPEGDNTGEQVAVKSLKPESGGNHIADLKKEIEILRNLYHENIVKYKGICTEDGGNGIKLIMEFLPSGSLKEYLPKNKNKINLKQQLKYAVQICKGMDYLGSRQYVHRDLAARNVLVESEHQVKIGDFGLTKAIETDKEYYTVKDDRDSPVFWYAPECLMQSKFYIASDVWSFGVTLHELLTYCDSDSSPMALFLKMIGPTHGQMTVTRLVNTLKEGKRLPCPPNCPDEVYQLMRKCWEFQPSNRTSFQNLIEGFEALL
The assay can be described thus: HTRF KinEASE assay, JAK1. The assay is classed as biochemical. Conditions: 2.5 μM ATP; read-out: IC50, Activity Toward JAK1. Summed up:
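Two-step HTRF KinEASE assay: compound, kinase/biotinylated TK substrate and ATP were incubated at least 30 min at room temperature. Antibody plus streptavidin-XL665 was then added and plates were read after 60 min. Inhibition was derived from emission ratios according to the kit protocol.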

T2 sequence (Q5S007 970-2527 limits assumed): as the sequence (Q5S007 970-2527 G2019S limits assumed) above, with S1050G counted along it

For the molecule `NC(=O)c1nn(-c2c(Cl)cccc2Cl)cc1Nc1ccc(C(=O)N2CC(O)C2)cc1` [compound 426, 1-(2,6-dichlorophenyl)-4-((4-(3-hydroxyazetidine-1-carbonyl)phenyl)amino)-1H-pyrazole-3-carboxamide], the IC50 in assay [1] is less than 10 nM; in assay [2], 100 to 1000 nM; in assay [3], 100 to 1000 nM; in assay [4] it was 10 to 100 nM.
For the molecule `Cc1cccc2nnc(-c3ccc(Nc4cn(-c5c(Cl)cccc5Cl)nc4C(N)=O)cn3)n12` [compound 388, 1-(2,6-dichlorophenyl)-4-((6-(5-methyl-[1,2,4]triazolo[4,3-a]pyridin-3-yl)pyridin-3-yl)amino)-1H-pyrazole-3-carboxamide], the 50% inhibitory concentration (IC50) in assay [1] was in the range of 10 to 100 nM; in assay [2] it was 100 to 1000 nM; in assay [3], 100 to 1000 nM; in assay [4], 10 to 100 nM.
On to `CC(C)n1cnnc1-c1ccc(Nc2cn(-c3c(Cl)cccc3Cl)nc2C(N)=O)cn1` [compound 400, 1-(2,6-dichlorophenyl)-4-((6-(4-isopropyl-4H-1,2,4-triazol-3-yl)pyridin-3-yl)amino)-1H-pyrazole-3-carboxamide], for which the concentration for half-maximal inhibition (IC50) in assay [1] is 10 to 100 nM; in assay [2], 100 to 1000 nM; in assay [3] it was 100 to 1000 nM; in assay [4], 100 to 1000 nM.
For the molecule `NC(=O)c1nn(-c2c(Cl)cccc2Cl)cc1Nc1ccc(-c2cccnn2)cc1` [compound 49, 1-(2,6-dichlorophenyl)-4-((4-(pyridazin-3-yl)phenyl)amino)-1H-pyrazole-3-carboxamide], the IC50 in assay [1] lay within 10 to 100 nM; in assay [2], 100 to 1000 nM; in assay [3], 100 to 1000 nM; in assay [4], 10 to 100 nM.
For the molecule `N#Cc1cn(CCO)c(-c2ccc(Nc3cn(-c4c(Cl)cccc4Cl)nc3C(N)=O)cn2)n1` [compound 387, 4-((6-(4-cyano-1-(2-hydroxyethyl)-1H-imidazol-2-yl)pyridin-3-yl)amino)-1-(2,6-dichlorophenyl)-1H-pyrazole-3-carboxamide], the IC50 in assay [1] was 10 to 100 nM; in assay [2], 100 to 1000 nM; in assay [3], 100 to 1000 nM; in assay [4], 10 to 100 nM.
On to `Cc1ncnn1-c1ccc(Nc2cn(-c3c(Cl)cccc3Cl)nc2C(N)=O)cc1` [compound 326, 1-(2,6-dichlorophenyl)-4-((4-(5-methyl-1H-1,2,4-triazol-1-yl)phenyl)amino)-1H-pyrazole-3-carboxamide], for which the IC50 in assay [1] is 10 to 100 nM; in assay [2], 100 to 1000 nM; in assay [3] it was 100 to 1000 nM; in assay [4] it was 10 to 100 nM.
`CC(C)(C)NC(=O)c1ccc(Nc2cn(-c3c(Cl)cccc3Cl)nc2C(N)=O)cc1` [compound 26, 4-((4-(tert-butylcarbamoyl)phenyl)amino)-1-(2,6-dichlorophenyl)-1H-pyrazole-3-carboxamide]: the half-maximal inhibitory concentration (IC50) fell in the range of 10 to 100 nM in assay [1], 100 to 1000 nM in assay [2], 100 to 1000 nM in assay [3] and 10 to 100 nM in assay [4].
Consider `CN1CCN(S(=O)(=O)c2ccc(Nc3cn(-c4c(Cl)cccc4Cl)nc3C(N)=O)cc2)CC1` [compound 85, 1-(2,6-dichlorophenyl)-4-((4-((4-methylpiperazin-1-yl)sulfonyl)phenyl)amino)-1H-pyrazole-3-carboxamide], for which the 50% inhibitory concentration (IC50) is less than 10 nM in assay [1], 100 to 1000 nM in assay [2], 100 to 1000 nM in assay [3] and 10 to 100 nM in assay [4].
Turning to `N#CC1CN(C(=O)c2ccc(Nc3cn(-c4c(Cl)cccc4Cl)nc3C(N)=O)cc2)C1` [compound 276, 4-((4-(3-cyanoazetidine-1-carbonyl)phenyl)amino)-1-(2,6-dichlorophenyl)-1H-pyrazole-3-carboxamide], the IC50 in assay [1] is less than 10 nM; in assay [2], 100 to 1000 nM; in assay [3], 100 to 1000 nM; in assay [4] it was 10 to 100 nM.
On to `Cc1ncn(C)c1-c1ccc(Nc2cn(-c3c(Cl)cccc3Cl)nc2C(N)=O)cc1` [compound 53, 1-(2,6-dichlorophenyl)-4-((4-(1,4-dimethyl-1H-imidazol-5-yl)phenyl)amino)-1H-pyrazole-3-carboxamide], for which the 50% inhibitory concentration (IC50) in assay [1] lay within 100 to 1000 nM; in assay [2] it was 100 to 1000 nM; in assay [3], 100 to 1000 nM; in assay [4], 10 to 100 nM.
Take `CC1(C)CN(C(=O)c2ccc(Nc3cn(-c4c(Cl)cccc4Cl)nc3C(N)=O)cc2)C1` [compound 456, 1-(2,6-dichlorophenyl)-4-((4-(3,3-dimethylazetidine-1-carbonyl)phenyl)amino)-1H-pyrazole-3-carboxamide]: the concentration for half-maximal inhibition (IC50) in assay [1] is less than 10 nM; in assay [2] it was 100 to 1000 nM; in assay [3], 100 to 1000 nM; in assay [4], 10 to 100 nM.
Take `NC(=O)c1nn(-c2c(Cl)cccc2Cl)cc1Nc1ccc(C(=O)N2CC[C@H](F)C2)cc1` [compound 316, (S)-1-(2,6-dichlorophenyl)-4-((4-(3-fluoropyrrolidine-1-carbonyl)phenyl)amino)-1H-pyrazole-3-carboxamide]: the IC50 in assay [1] was less than 10 nM; in assay [2], 100 to 1000 nM; in assay [3], 100 to 1000 nM; in assay [4], 10 to 100 nM.
`CCc1nc(C(F)(F)F)nn1-c1ccc(Nc2cn(-c3c(F)cccc3Cl)nc2C(N)=O)cc1` [compound 283, 1-(2-chloro-6-fluorophenyl)-4-((4-(5-ethyl-3-(trifluoromethyl)-1H-1,2,4-triazol-1-yl)phenyl)amino)-1H-pyrazole-3-carboxamide]: the IC50 is less than 10 nM in assay [1], 100 to 1000 nM in assay [2], 100 to 1000 nM in assay [3] and 100 to 1000 nM in assay [4].
Consider `Cn1cc(C(F)(F)F)nc1-c1ccc(Nc2cn(-c3c(F)cccc3Cl)nc2C(N)=O)cc1` [compound 305, 1-(2-chloro-6-fluorophenyl)-4-((4-(1-methyl-4-(trifluoromethyl)-1H-imidazol-2-yl)phenyl)amino)-1H-pyrazole-3-carboxamide], for which the concentration for half-maximal inhibition (IC50) was less than 10 nM in assay [1], 100 to 1000 nM in assay [2], 100 to 1000 nM in assay [3] and 10 to 100 nM in assay [4].
`COc1ccccc1-c1ccc(Nc2cn(-c3c(Cl)cccc3Cl)nc2C(N)=O)cn1` [compound 344, 1-(2,6-dichlorophenyl)-4-((6-(2-methoxyphenyl)pyridin-3-yl)amino)-1H-pyrazole-3-carboxamide]: the half-inhibitory concentration (IC50) in assay [1], in assay [2] and in assay [3] was 100 to 1000 nM in each case.
`Cc1ccnc(Nc2cn(-c3c(F)cccc3F)nc2C(N)=O)c1` [compound 10, 1-(2,6-difluorophenyl)-4-((4-methylpyridin-2-yl)amino)-1H-pyrazole-3-carboxamide]: the half-inhibitory concentration (IC50) in assay [1], in assay [2] and in assay [3] was 100 to 1000 nM in each case.
Turning to `CC(C)(C)NC(=O)c1ccc(Nc2cn(-c3c(F)cccc3F)nc2C(N)=O)cn1` [compound 23, N-(tert-butyl)-5-((3-carbamoyl-1-(2,6-difluorophenyl)-1H-pyrazol-4-yl)amino)picolinamide], the IC50 in assay [1], in assay [2] and in assay [3] was 100 to 1000 nM each time.
Regarding `CC(C)n1cnnc1-c1ccc(Nc2nn(-c3c(Cl)cccc3Cl)nc2C(N)=O)cc1` [compound 125, 2-(2,6-dichlorophenyl)-5-((4-(4-isopropyl-4H-1,2,4-triazol-3-yl)phenyl)amino)-2H-1,2,3-triazole-4-carboxamide], the half-maximal inhibitory concentration (IC50) in assay [1] and in assay [4] was 10 to 100 nM each time.
Regarding `N#Cc1cccc(Cl)c1-n1cc(Nc2ccc(C(=O)N3CCOCC3)cc2)c(C(N)=O)n1` [compound 458, 1-(2-chloro-6-cyanophenyl)-4-((4-(morpholine-4-carbonyl)phenyl)amino)-1H-pyrazole-3-carboxamide], the IC50 is less than 10 nM in assay [1] and 10 to 100 nM in assay [4].
The like results for `NC(=O)c1nn(-c2c(Cl)cccc2Cl)nc1Nc1ccc(-n2cc3c(n2)CCOC3)cc1` [compound 111, 2-(2,6-Dichloro-phenyl)-5-[4-(6,7-dihydro-4H-pyrano[4,3-c]pyrazol-2-yl)-phenylamino]-2H-[1,2,3]triazole-4-carboxylic acid amide] were, in that order, 100 to 1000 nM and 100 to 1000 nM.

(Values after patent US20230373985A1 (Origenis Gmbh, priority 2020, published 2023).)
